Data from PubChem BioAssay AID1963862 (Molecular Pharmacology Branch, DTP, NCI, 2024).

Test system: KRAS patient-derived spheroids with HUVEC/MSC, viability
Assay: Anticancer human tumor 941728-121-R-J1-PDC patient-derived lung adenocarcinoma cell line growth inhibition [KRAS2]
Conditions: for IC50: curve of first compound; for viability, T/C: stronger effect = lower value
Description: Multicellular complex tumor spheroid response to RAS pathway inhibitors in combination with a targeted agents in patient-derived cell lines with oncogenic KRAS variants from multiple cancer types
A high-throughput screen of multi-cell type tumor spheroids was designed to identify active combinations of targeted small molecules and KRAS pathway inhibitors. Complex spheroids include a stromal component modeled by human endothelial cells (HUVEC) and fibroblasts modeled by human mesenchymal stem cells (MSCs). The concentration ranges selected for each drug and investigational agent were based upon clinically achievable concentrations if the clinical Cmax of the agent was known.
Compounds. The drugs and investigational agents: BI-3406 (NSC825286), BAY-293 (NSC824723), batoprotafib (TNO155; NSC825523), sotorasib (AMG 510; NSC818433), MRTX1257 (NSC819558), elimusertib (BAY 1895344; NSC800525), molibresib (GSK525762; NSC774829), temuterkib (LY3214996; NSC803410), venetoclax (NSC766270), alisertib (NSC759677), olaparib (NSC753686), talazoparib (NSC767125), erdafitinib (NSC781556), ipatasertib (NSC767898), cabozantinib (NSC761068), nintedanib (NSC756659), abemaciclib (NSC768073), docetaxel (NSC628503), trametinib (NSC758246), and sapanisertib (NSC764658) were obtained from the National Cancer Institute (NCI) Developmental Therapeutics Program Chemical Repository. The FDA-approved anticancer drug set is available from the Developmental Therapeutics Program. […] The stock solutions were prepared in dimethyl sulfoxide (DMSO, Sigma-Aldrich, St. Louis, MO, cat. D2650) at 800-fold the tested concentration and stored at -70 degrees C prior to their use. All drugs and investigational agents were tested over a range starting from a high concentration at or near the clinical Cmax and decreasing in half-log increments. If the clinical Cmax for an agent had not been determined, the highest concentration tested was 10 microM.
Cell Culture. All cells were maintained in an incubator at 37 degrees C and 5% CO2 with 95% humidity. The PDC lines were cultured according to standard operating procedures established by the NCI PDMR (https://pdmr.cancer.gov/sops/default.htm). Briefly, all PDCs were thawed and cultured in Matrigel-coated flasks prepared with a working solution of 1X Ham's F-12 nutrient mix, without supplementation (Invitrogen, Waltham, MA, cat. 11765054), 100 U/mL penicillin-streptomycin (Invitrogen, cat. 15140122), and 2.5% Matrigel (Corning Inc., Corning, NY, cat. 354248) for the first three passages. All PDCs were cultured in complete DMEM/F-12 media containing advanced DMEM/F-12 (Invitrogen, cat. 12634028), 4.9% defined fetal bovine serum, heat inactivated (HyClone Laboratories Inc., Logan, UT, cat. SH30070.03HI), 389 ng/mL hydrocortisone (Sigma-Aldrich, cat. H4001), 9.7 ng/mL human EGF recombinant protein (Invitrogen, cat. PHG0313), 23.4 microg/mL adenine (Sigma-Aldrich, cat. A2786), 97.3 U/mL penicillin-streptomycin (Invitrogen, cat. 15140122), 1.9 mM L-glutamine (Invitrogen, cat. 25030081), and 9.7 microM Y-27632 dihydrochloride (Tocris Bioscience, Bristol, United Kingdom, cat. 1254). The PDCs were cultured in complete DMEM/F12 media without 9.7 microM Y-27632 dihydrochloride for at least two passages prior to the screen. The established cell line HOP-62 was cultured in RPMI 1640 medium, HEPES (Invitrogen, cat. 22400105) with 10% defined fetal bovine serum (HyClone Laboratories Inc., cat. SH30070.03) and 2 mM L-glutamine (Invitrogen, cat. 25030081). The pooled donor HUVEC were cultured in endothelial cell growth medium 2 (PromoCell, Heidelberg, Germany, cat. C-22011) and the hMSC were cultured in mesenchymal stem cell growth medium 2 (PromoCell, cat. C-28009). For all experiments, HUVEC and hMSC were used at passages </=5, while the malignant cell lines were used at passages </=15. […]

[1] = second compound 0.1 µM, first compound 0.0316 µM
[2] = second compound 0.1 µM, first compound 0.1 µM
[3] = second compound 0.1 µM, first compound 0.316 µM
[4] = second compound 0.1 µM, first compound 1 µM
[5] = second compound 0.1 µM, first compound 3.16 µM
[6] = second compound 0.316 µM, first compound 0.0316 µM
[7] = second compound 0.316 µM, first compound 0.1 µM
[8] = second compound 0.316 µM, first compound 0.316 µM
[9] = second compound 0.316 µM, first compound 1 µM
[10] = second compound 0.316 µM, first compound 3.16 µM
[11] = second compound 1 µM, first compound 0.0316 µM
[12] = second compound 1 µM, first compound 0.1 µM
[13] = second compound 1 µM, first compound 0.316 µM
[14] = second compound 1 µM, first compound 1 µM
[15] = second compound 1 µM, first compound 3.16 µM
[16] = second compound 3.16 µM, first compound 0.0316 µM
[17] = second compound 3.16 µM, first compound 0.1 µM
[18] = second compound 3.16 µM, first compound 0.316 µM
[19] = second compound 3.16 µM, first compound 1 µM
[20] = second compound 3.16 µM, first compound 3.16 µM
[21] = second compound 0.0316 µM, first compound 0.01 µM
[22] = second compound 0.0316 µM, first compound 0.0316 µM
[23] = second compound 0.0316 µM, first compound 0.1 µM
[24] = second compound 0.1 µM, first compound 0.01 µM
[25] = second compound 0.316 µM, first compound 0.01 µM
[26] = second compound 1 µM, first compound 0.01 µM
[27] = second compound 3.16 µM, first compound 0.01 µM
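Also: spheroids exposed to agents for seven days before readout.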

## CC1OCC2(CCN(c3cnc(Sc4ccnc(N)c4Cl)c(N)n3)CC2)C1N (stereo not given) + C=CC(=O)N1CCN(c2nc(=O)n(-c3c(C)ccnc3C(C)C)c3nc(-c4c(O)cccc4F)c(F)cc23)C(C)C1
Second compound 0.1 µM
  IC50: < 31.6 nM
Second compound 0.316 µM
  IC50: < 31.6 nM
Second compound 1 µM
  IC50: < 31.6 nM
Second compound 3.16 µM
  IC50: < 31.6 nM
Second compound 10 µM
  IC50: < 31.6 nM
[1]
  viability, T/C: 21.9%
[2]
  viability, T/C: 20.6%
[3]
  viability, T/C: 17.3%
[4]
  viability, T/C: 16.8%
[5]
  viability, T/C: 16.6%
Second compound 0.1 µM, first compound 10 µM
  viability, T/C: 12.9%
[6]
  viability, T/C: 26.5%
[7]
  viability, T/C: 23%
[8]
  viability, T/C: 20.1%
[9]
  viability, T/C: 17.1%
[10]
  viability, T/C: 15.1%
Second compound 0.316 µM, first compound 10 µM
  viability, T/C: 12.4%
[11]
  viability, T/C: 31.1%
[12]
  viability, T/C: 24.7%
[13]
  viability, T/C: 20.4%
[14]
  viability, T/C: 18.9%
[15]
  viability, T/C: 19.6%
Second compound 1 µM, first compound 10 µM
  viability, T/C: 17.8%
[16]
  viability, T/C: 29%
[17]
  viability, T/C: 25.4%
[18]
  viability, T/C: 25.6%
[19]
  viability, T/C: 21.5%
[20]
  viability, T/C: 22.1%
Second compound 3.16 µM, first compound 10 µM
  viability, T/C: 18.5%
Second compound 10 µM, first compound 0.0316 µM
  viability, T/C: 34.1%
Second compound 10 µM, first compound 0.1 µM
  viability, T/C: 35%
Second compound 10 µM, first compound 0.316 µM
  viability, T/C: 31%
Second compound 10 µM, first compound 1 µM
  viability, T/C: 26.8%
Second compound 10 µM, first compound 3.16 µM
  viability, T/C: 26.7%
Second compound 10 µM, first compound 10 µM
  viability, T/C: 28.5%

## CC(=O)OC12COC1CC(O)C1(C)C(=O)C(O)C3=C(C)C(OC(=O)C(O)C(NC(=O)OC(C)(C)C)c4ccccc4)CC(O)(C(OC(=O)c4ccccc4)C21)C3(C)C (stereo not given) + C=CC(=O)N1CCN(c2nc(OCC3CCCN3C)nc3c2CCN(c2cccc4cccc(C)c24)C3)CC1CC#N
Second compound 0.0316 µM
  IC50: < 10 nM
Second compound 0.1 µM
  IC50: < 10 nM
Second compound 0.316 µM
  IC50: < 10 nM
Second compound 1 µM
  IC50: < 10 nM
Second compound 3.16 µM
  IC50: < 10 nM
[21]
  viability, T/C: 28.2%
[22]
  viability, T/C: 28.4%
[23]
  viability, T/C: 26.8%
Second compound 0.0316 µM, first compound 0.316 µM
  viability, T/C: 25.7%
Second compound 0.0316 µM, first compound 1 µM
  viability, T/C: 29.1%
Second compound 0.0316 µM, first compound 3.16 µM
  viability, T/C: 26.7%
[24]
  viability, T/C: 24.6%
[1]
  viability, T/C: 22.2%
[2]
  viability, T/C: 21.9%
[3]
  viability, T/C: 22.9%
[4]
  viability, T/C: 24.6%
[5]
  viability, T/C: 26.2%
[25]
  viability, T/C: 22.8%
[6]
  viability, T/C: 21.6%
[7]
  viability, T/C: 21.1%
[8]
  viability, T/C: 22.1%
[9]
  viability, T/C: 21.1%
[10]
  viability, T/C: 24.4%
[26]
  viability, T/C: 21.2%
[11]
  viability, T/C: 23.4%
[12]
  viability, T/C: 21.1%
[13]
  viability, T/C: 19.8%
[14]
  viability, T/C: 21.7%
[15]
  viability, T/C: 20.8%
[27]
  viability, T/C: 27.9%
[16]
  viability, T/C: 33.1%
[17]
  viability, T/C: 26.4%
[18]
  viability, T/C: 27.3%
[19]
  viability, T/C: 26.9%
[20]
  viability, T/C: 27.9%

## CN(C)C/C=C/C(=O)Nc1cc2c(Nc3ccc(F)c(Cl)c3)ncnc2cc1O[C@H]1CCOC1 + C=CC(=O)N1CCN(c2nc(OCC3CCCN3C)nc3c2CCN(c2cccc4cccc(C)c24)C3)CC1CC#N
Second compound 0.0316 µM
  IC50: < 0.316 nM
Second compound 0.1 µM
  IC50: < 0.316 nM
Second compound 0.316 µM
  IC50: < 0.316 nM
Second compound 1 µM
  IC50: < 0.316 nM
Second compound 3.16 µM
  IC50: < 0.316 nM
Second compound 0.0316 µM, first compound 0.000316 µM
  viability, T/C: 22.7%
Second compound 0.0316 µM, first compound 0.001 µM
  viability, T/C: 22.4%
Second compound 0.0316 µM, first compound 0.00316 µM
  viability, T/C: 22.2%
[21]
  viability, T/C: 23.3%
[22]
  viability, T/C: 20.5%
[23]
  viability, T/C: 20.6%
Second compound 0.1 µM, first compound 0.000316 µM
  viability, T/C: 21.3%
Second compound 0.1 µM, first compound 0.001 µM
  viability, T/C: 19.3%
Second compound 0.1 µM, first compound 0.00316 µM
  viability, T/C: 18.8%
[24]
  viability, T/C: 20.1%
[1]
  viability, T/C: 20.4%
[2]
  viability, T/C: 18.6%
Second compound 0.316 µM, first compound 0.000316 µM
  viability, T/C: 21.1%
Second compound 0.316 µM, first compound 0.001 µM
  viability, T/C: 20.9%
Second compound 0.316 µM, first compound 0.00316 µM
  viability, T/C: 21.4%
[25]
  viability, T/C: 21.5%
[6]
  viability, T/C: 20.5%
[7]
  viability, T/C: 18.3%
Second compound 1 µM, first compound 0.000316 µM
  viability, T/C: 21.1%
Second compound 1 µM, first compound 0.001 µM
  viability, T/C: 21.2%
Second compound 1 µM, first compound 0.00316 µM
  viability, T/C: 20.9%
[26]
  viability, T/C: 19.1%
[11]
  viability, T/C: 19.2%
[12]
  viability, T/C: 21.2%
Second compound 3.16 µM, first compound 0.000316 µM
  viability, T/C: 1.16%
Second compound 3.16 µM, first compound 0.001 µM
  viability, T/C: 0.2%
Second compound 3.16 µM, first compound 0.00316 µM
  viability, T/C: 0.46%
[27]
  viability, T/C: 0.19%
[16]
  viability, T/C: 0.45%
[17]
  viability, T/C: 1.8%
